Calls of active or inactive are those of the source. The rule behind the calls is not given here.
Experiments:
Bcap37 [1] = assay: Cytotoxicity against human Bcap37 cells after 72 hrs by MTT assay; details: Bcap37, 72 h
PC-3 [2] = assay: cells; details: Homo sapiens, PC-3, 72 h
Description: Cytotoxicity against human PC3 cells after 72 hrs by MTT assay

MGC-803 [3] = assay: cells; details: Homo sapiens, MGC-803, 72 h
Description: Cytotoxicity against human MGC803 cells after 72 hrs by MTT assay

MGC-803 [4] = assay: Induction of apoptosis in human MGC803 cells assessed as chromatin condensation at 10 uM after 12 hrs by Hoechst 33258 staining-based fluorescence microscopic analysis; assay type: functional, cell-based
MGC-803 [5] = assay: Induction of apoptosis in human MGC803 cells assessed as early and late apoptosis ratio at 5 uM after 12 hrs by annxinV-FITC/propidium iodide staining-based flow cytometry; assay type: functional
PC-3 [6] = assay: Induction of apoptosis in human PC3 cells assessed as chromatin condensation at 10 uM after 12 hrs by Hoechst 33258 staining-based fluorescence microscopic analysis; assay type: functional, cell-based
Bcap37 [7] = assay: Induction of apoptosis in human Bcap37 cells assessed as smaller nuclei at 10 uM after 12 hrs by Hoechst 33258 staining-based fluorescence microscopic analysis; assay type: functional, cell-based
MGC-803 [8] = assay: Induction of apoptosis in human MGC803 cells assessed as early and late apoptosis ratio at 1 uM after 12 hrs by annxinV-FITC/propidium iodide staining-based flow cytometry; assay type: functional
MGC-803 [9] = assay: Induction of apoptosis in human MGC803 cells assessed as early and late apoptosis ratio at 10 uM after 12 hrs by annxinV-FITC/propidium iodide staining-based flow cytometry; assay type: functional
PC-3 [10] = assay: Induction of apoptosis in human PC3 cells assessed as smaller nuclei at 10 uM after 12 hrs by Hoechst 33258 staining-based fluorescence microscopic analysis; assay type: functional, cell-based
MGC-803 [11] = assay: Induction of apoptosis in human MGC803 cells assessed as early and late apoptosis ratio at 10 uM after 24 hrs by annxinV-FITC/propidium iodide staining-based flow cytometry; assay type: functional
MGC-803 [12] = assay: Induction of apoptosis in human MGC803 cells assessed as early and late apoptosis ratio at 1 uM after 24 hrs by annxinV-FITC/propidium iodide staining-based flow cytometry; assay type: functional
MGC-803 [13] = assay: Induction of apoptosis in human MGC803 cells assessed as early and late apoptosis ratio at 5 uM after 24 hrs by annxinV-FITC/propidium iodide staining-based flow cytometry; assay type: functional
MGC-803 [14] = assay: Induction of apoptosis in human MGC803 cells assessed as early and late apoptosis ratio at 1 uM after 6 hrs by annxinV-FITC/propidium iodide staining-based flow cytometry; assay type: functional
MGC-803 [15] = assay: Induction of apoptosis in human MGC803 cells assessed as early and late apoptosis ratio at 5 uM after 6 hrs by annxinV-FITC/propidium iodide staining-based flow cytometry; assay type: functional
MGC-803 [16] = assay: Induction of apoptosis in human MGC803 cells assessed as early and late apoptosis ratio at 10 uM after 6 hrs by annxinV-FITC/propidium iodide staining-based flow cytometry; assay type: functional
MGC-803 [17] = assay: Induction of apoptosis in human MGC803 cells assessed as smaller nuclei at 10 uM after 12 hrs by Hoechst 33258 staining-based fluorescence microscopic analysis; assay type: functional, cell-based
MGC-803 [18] = assay: Induction of apoptosis in human MGC803 cells assessed as DNA fragmentation at 10 uM after 12 hrs by EB staining-based agarose gel electrophoresis relative to control; assay type: functional, cell-based
Bcap37 [19] = assay: Induction of apoptosis in human Bcap37 cells assessed as chromatin condensation at 10 uM after 12 hrs by Hoechst 33258 staining-based fluorescence microscopic analysis; assay type: functional, cell-based
Bcap37 [20] = assay: Induction of apoptosis in human Bcap37 cells assessed as early and late apoptic cells at 5 uM after 12 hrs by AO/EB staining-based fluorescence microscopic analysis; assay type: functional, cell-based
PC-3 [21] = assay: Induction of apoptosis in human PC3 cells assessed as chromatin condensation at 5 uM after 12 hrs by Hoechst 33258 staining-based fluorescence microscopic analysis; assay type: functional, cell-based
MGC-803 [22] = assay: Induction of apoptosis in human MGC803 cells assessed as early and late apoptic cells at 5 uM after 12 hrs by AO/EB staining-based fluorescence microscopic analysis; assay type: functional, cell-based
PC-3 [23] = assay: Induction of apoptosis in human PC3 cells assessed as necrotic cells at 5 uM after 12 hrs by AO/EB staining-based fluorescence microscopic analysis; assay type: functional, cell-based
MGC-803 [24] = assay: Induction of apoptosis in human MGC803 cells assessed as pyknotic nuclei at 5 uM after 12 hrs by Hoechst 33258 staining-based fluorescence microscopic analysis; assay type: functional, cell-based
MGC-803 [25] = assay: Induction of apoptosis in human MGC803 cells assessed as early and late apoptosis ratio at 1 to 10 uM by annxinV-FITC/propidium iodide staining-based flow cytometry; assay type: functional, cell-based; details: TDE = time-dependent effect
Bcap37 [26] = assay: Induction of apoptosis in human Bcap37 cells assessed as necrotic cells at 5 uM after 12 hrs by AO/EB staining-based fluorescence microscopic analysis; assay type: functional, cell-based
PC-3 [27] = assay: Induction of apoptosis in human PC3 cells assessed as early and late apoptic cells at 5 uM after 12 hrs by AO/EB staining-based fluorescence microscopic analysis; assay type: functional, cell-based
MGC-803 [28] = assay: Induction of apoptosis in human MGC803 cells assessed as necrotic cells at 5 uM after 12 hrs by AO/EB staining-based fluorescence microscopic analysis; assay type: functional, cell-based
MGC-803 [29] = assay: Induction of apoptosis in human MGC803 cells assessed as chromatin condensation at 5 uM after 12 hrs by Hoechst 33258 staining-based fluorescence microscopic analysis; assay type: functional, cell-based
Bcap37 [30] = assay: Induction of apoptosis in human Bcap37 cells assessed as pyknotic nuclei at 5 uM after 12 hrs by Hoechst 33258 staining-based fluorescence microscopic analysis; assay type: functional, cell-based
[31] = Selectivity index, ratio of IC50 for mouse NIH3T3 cells to IC50 for human MGC803 cells; assay type: functional
Bcap37 [32] = assay: Induction of apoptosis in human Bcap37 cells assessed as chromatin condensation at 5 uM after 12 hrs by Hoechst 33258 staining-based fluorescence microscopic analysis; assay type: functional, cell-based
PC-3 [33] = assay: Induction of apoptosis in human PC3 cells assessed as pyknotic nuclei at 5 uM after 12 hrs by Hoechst 33258 staining-based fluorescence microscopic analysis; assay type: functional, cell-based
[34] = Selectivity index, ratio of IC50 for mouse NIH3T3 cells to IC50 for human Bcap37 cells; assay type: functional
[35] = Selectivity index, ratio of IC50 for mouse NIH3T3 cells to IC50 for human PC3 cells; assay type: functional
MGC-803 [36] = assay: Induction of apoptosis in human MGC803 cells assessed as DNA fragmentation at 5 uM after 12 hrs by EB staining-based agarose gel electrophoresis relative to control; assay type: functional, cell-based

Compound: CC(=O)/C=C/c1ccc(Oc2ncnc3ccccc23)cc1
- IC50 (Bcap37 [1]): 28.9 µM
- IC50 (PC-3 [2]): 21.3 µM
- IC50 (MGC-803 [3]): 18.4 µM

Compound: COc1ccccc1/C=C/C(=O)/C=C/c1ccc(Oc2ncnc3c(C)cccc23)cc1
- IC50 (Bcap37 [1]): 9.26 µM
- IC50 (PC-3 [2]): 5.17 µM
- IC50 (MGC-803 [3]): 3.76 µM

Compound: Cc1cccc2c(Oc3ccc(/C=C/C(=O)/C=C/c4ccc(Cl)cc4Cl)cc3)ncnc12
- IC50 (Bcap37 [1]): 32.8 µM
- IC50 (PC-3 [2]): 15.2 µM
- IC50 (MGC-803 [3]): 5.13 µM

Compound: CC[C@@]1(O)C(=O)OCc2c1cc1n(c2=O)Cc2cc3cc(O)ccc3nc2-1 [HYDROXYCAMPTOTHECIN]
- Activity (MGC-803 [4]): Active
- Activity (MGC-803 [5]): 5.8%
- Activity (PC-3 [6]): Active
- Activity (Bcap37 [7]): Active
- Activity (MGC-803 [8]): 2%
- Activity (MGC-803 [9]): 8.6%
- Activity (PC-3 [10]): Active
- Activity (MGC-803 [11]): 24.5%
- Activity (MGC-803 [12]): 4.7%
- Activity (MGC-803 [13]): 7.6%
- Activity (MGC-803 [14]): 1.2%
- Activity (MGC-803 [15]): 1.8%
- Activity (MGC-803 [16]): 3%
- Activity (MGC-803 [17]): Active
- Activity (MGC-803 [18]): Active
- Activity (Bcap37 [19]): Active

Compound: O=C(/C=C/c1ccc(Oc2ncnc3ccccc23)cc1)/C=C/c1cc([N+](=O)[O-])ccc1Cl
- Activity (Bcap37 [20]): Active
- Activity (PC-3 [21]): Active
- Activity (MGC-803 [22]): Active
- Activity (PC-3 [23]): Active
- Activity (MGC-803 [5]): 6.2%
- Activity (MGC-803 [24]): Active
- IC50 (Bcap37 [1]): 3.9 µM
- Activity (MGC-803 [25]): tde
- Activity (MGC-803 [8]): 2.8%
- Activity (MGC-803 [9]): 10.5%
- Activity (MGC-803 [11]): 27.1%
- Activity (Bcap37 [26]): Active
- Activity (PC-3 [27]): Active
- Activity (MGC-803 [12]): 5.3%
- Activity (MGC-803 [28]): Active
- Activity (MGC-803 [29]): Active
- IC50 (PC-3 [2]): 1.34 µM
- Activity (MGC-803 [13]): 8.9%
- Activity (MGC-803 [14]): 2.4%
- Activity (Bcap37 [30]): Active
- Ratio IC50 [31]: >8
- Activity (Bcap37 [32]): Active
- IC50 (MGC-803 [3]): 0.86 µM
- Activity (MGC-803 [15]): 4.1%
- Activity (MGC-803 [16]): 6.4%
- Activity (PC-3 [33]): Active
- Ratio IC50 [34]: 5.72
- Ratio IC50 [35]: >8
- Activity (MGC-803 [36]): Active

Compound: O=C(/C=C/c1ccc(F)cc1)/C=C/c1ccc(Oc2ncnc3ccccc23)cc1
- IC50 (Bcap37 [1]): 8.53 µM
- IC50 (PC-3 [2]): 5.62 µM
- IC50 (MGC-803 [3]): 3.84 µM

Compound: COc1ccc(OC)c(/C=C/C(=O)/C=C/c2ccc(Oc3ncnc4ccccc34)cc2)c1
- IC50 (Bcap37 [1]): 7.81 µM
- IC50 (PC-3 [2]): 2.96 µM
- Ratio IC50 [31]: 6.57
- IC50 (MGC-803 [3]): 2.01 µM
- Ratio IC50 [34]: <2
- Ratio IC50 [35]: 4.46

Compound: Cc1cccc2c(Oc3ccc(/C=C/C(=O)/C=C/c4cc([N+](=O)[O-])ccc4Cl)cc3)ncnc12
- IC50 (Bcap37 [1]): 7.89 µM
- IC50 (PC-3 [2]): 2.79 µM
- IC50 (MGC-803 [3]): 1.86 µM

Compound: Cc1nn(C)c(Cl)c1/C=C/C(=O)/C=C/c1ccc(Oc2ncnc3c(C)cccc23)cc1
- IC50 (Bcap37 [1]): 21.3 µM
- IC50 (PC-3 [2]): 16.4 µM
- IC50 (MGC-803 [3]): 11.6 µM

Compound: O=C(/C=C/c1ccc(Oc2ncnc3ccccc23)cc1)/C=C/c1ccc(Cl)cc1Cl
- IC50 (Bcap37 [1]): 10.8 µM
- IC50 (PC-3 [2]): 4.57 µM
- IC50 (MGC-803 [3]): 2.77 µM

Compound: COc1ccccc1/C=C/C(=O)/C=C/c1ccc(Oc2ncnc3ccccc23)cc1
- IC50 (Bcap37 [1]): 7.82 µM
- IC50 (PC-3 [2]): 3.66 µM
- Ratio IC50 [31]: 6.13
- IC50 (MGC-803 [3]): 2.03 µM
- Ratio IC50 [34]: <2
- Ratio IC50 [35]: 3.4

Compound: Cc1cccc2c(Oc3ccc(/C=C/C(=O)/C=C/c4ccc(Cl)cc4)cc3)ncnc12
- IC50 (Bcap37 [1]): 12.3 µM
- IC50 (PC-3 [2]): 8.79 µM
- IC50 (MGC-803 [3]): 8.1 µM

Compound: O=C(/C=C/c1ccc(Cl)cc1)/C=C/c1ccc(Oc2ncnc3ccccc23)cc1
- IC50 (Bcap37 [1]): 11.3 µM
- IC50 (PC-3 [2]): 7.35 µM
- IC50 (MGC-803 [3]): 4.84 µM

Compound: Cc1nn(C)c(Cl)c1/C=C/C(=O)/C=C/c1ccc(Oc2ncnc3ccccc23)cc1
- IC50 (Bcap37 [1]): 18.9 µM
- IC50 (PC-3 [2]): 11.5 µM
- IC50 (MGC-803 [3]): 9.31 µM

Compound: COc1cccc2c1C(=O)c1c(O)c3c(c(O)c1C2=O)C[C@@](O)(C(=O)CO)C[C@@H]3O[C@H]1C[C@H](N)[C@H](O)[C@H](C)O1 [DOXORUBICIN]
- IC50 (Bcap37 [1]): 1.9 µM
- IC50 (PC-3 [2]): 1.01 µM
- Ratio IC50 [31]: <2
- IC50 (MGC-803 [3]): 0.74 µM
- Ratio IC50 [34]: <2
- Ratio IC50 [35]: <2

Compound: COc1ccc(OC)c(/C=C/C(=O)/C=C/c2ccc(Oc3ncnc4c(C)cccc34)cc2)c1
- IC50 (Bcap37 [1]): 8.17 µM
- IC50 (PC-3 [2]): 4.71 µM
- IC50 (MGC-803 [3]): 2.32 µM

Compound: Cc1cccc2c(Oc3ccc(/C=C/C(=O)/C=C/c4ccc(F)cc4)cc3)ncnc12
- IC50 (Bcap37 [1]): 9.25 µM
- IC50 (PC-3 [2]): 7.36 µM
- IC50 (MGC-803 [3]): 4.36 µM

Compound: CC(=O)/C=C/c1ccc(Oc2ncnc3c(C)cccc23)cc1
- IC50 (Bcap37 [1]): 30.3 µM
- IC50 (PC-3 [2]): 25.8 µM
- IC50 (MGC-803 [3]): 19.9 µM

Source: ChEMBL document CHEMBL2429743, “Synthesis and antitumor properties of novel curcumin analogs” (Med Chem Res, 2013)
